# Numbered stars: 1 amine (or outer) side, 2 acyl side, 3 side chain; on linkers, the order of the positions; unused ones are H or OH. Square brackets hold non-standard residues; d marks the D form. Side chains are listed from the residue outwards. Peptide text beside a SMILES is read from it. * marks the point of attachment. DOTA(Lu)NH(CH2)6NHCOCH2 = O=C(CN1CCN2CCN3CCN(CC1)CC(=O)[O][Lu]([O]C(=O)C2)[O]C(=O)C3)NCCCCCCNC(=O)C*; DOTA(Lu) = O=C1CN2CCN3CCN(CC(=O)*)CCN(CC2)CC(=O)[O][Lu]([O]1)[O]C(=O)C3; X5 = O=C(CN1CCN2CCN3CCN(CC1)CC(=O)[O][Lu]([O]C(=O)C2)[O]C(=O)C3)NCC*; Ala(piperidin-4-yl) = O=C([C@H](CC1CCN([*:3])CC1)N[*:1])[*:2]; dTrp(βS-Me) = C[C@@H](c1c[nH]c2ccccc12)[C@@H](N)C(=O)O; dTrp(5-OMe) = COc1ccc2[nH]cc(C[C@@H](N)C(=O)O)c2c1; dTrp(5-Cl) = N[C@H](Cc1c[nH]c2ccc(Cl)cc12)C(=O)O; dTrp(5-Me) = Cc1ccc2[nH]cc(C[C@@H](N)C(=O)O)c2c1; dTrp(6-Cl) = N[C@H](Cc1c[nH]c2cc(Cl)ccc12)C(=O)O; dTpi = O=C(O)[C@H]1Cc2c([nH]c3ccccc23)CN1; Phe(3-OMe) = COc1cccc(C[C@H](N)C(=O)O)c1; X2 = O=C([C@H](CCC1CNC1)N[*:1])[*:2]; 4Pal = N[C@@H](Cc1ccncc1)C(=O)O; Cha = N[C@@H](CC1CCCCC1)C(=O)O; Lys(Me) = CNCCCC[C@H](N)C(=O)O; NMehCys = CN[C@@H](CCS)C(=O)O; NMeK = CN[C@@H](CCCCN)C(=O)O; NMeDap = CN[C@@H](CN)C(=O)O; NMeS = CN[C@@H](CO)C(=O)O; Ahx = NCCCCCC(=O)O
# Target: SSTR2 (Homo sapiens, UniProt P30874)
# Assay: SSTR binding affinity by radioligand binding competition assay ([125I]-Tyr11-Somatostatin, membrane extracts)
# Conditions: radioligand competition, [125I]-Tyr11-Somatostatin 0.1 nM, membrane extracts, Ki from IC50 by Cheng Prusoff; for Ki: read-out: SSTR2 Ki
# Chain of SSTR2 (P30874 whole entry): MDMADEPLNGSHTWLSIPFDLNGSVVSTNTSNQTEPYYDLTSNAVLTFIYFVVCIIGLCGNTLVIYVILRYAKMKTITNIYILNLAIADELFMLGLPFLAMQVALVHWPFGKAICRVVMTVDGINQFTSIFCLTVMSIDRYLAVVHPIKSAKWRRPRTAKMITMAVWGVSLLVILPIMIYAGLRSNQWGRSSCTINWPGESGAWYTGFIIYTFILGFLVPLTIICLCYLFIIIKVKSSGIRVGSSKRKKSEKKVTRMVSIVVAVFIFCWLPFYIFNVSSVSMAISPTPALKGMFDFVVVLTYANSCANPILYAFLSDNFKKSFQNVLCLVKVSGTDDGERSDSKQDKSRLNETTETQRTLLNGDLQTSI
SMILES,Ki [nM],SSTR2 Ki
Cc1ccc2[nH]cc(C[C@H]3NC(=O)[C@H](Cc4ccc(O)cc4)NC(=O)[C@H](CCSCC(=O)NCCCCCCNC(=O)CN4CCN5CCN6CCN(CC4)CC(=O)[O][Lu]([O]C(=O)C5)[O]C(=O)C6)N(C)C(=O)[C@H](Cc4ccccc4)NC(=O)[C@H]([C@@H](C)O)NC(=O)[C@H](CC4CCNCC4)NC3=O)c2c1 [RB-0006074] (cyclo(F[NMehCys](DOTA(Lu)NH(CH2)6NHCOCH2)Y[dTrp(5-Me)][Ala(piperidin-4-yl)]T)),3.33 to 10,
C[C@@H](O)[C@@H]1NC(=O)[C@H](CC2CCNCC2)NC(=O)[C@@H](Cc2c[nH]c3ccc(Cl)cc23)NC(=O)[C@H](Cc2ccc(O)cc2)NC(=O)[C@H](CCSCC(=O)NCCCCCCNC(=O)CN2CCN3CCN4CCN(CC2)CC(=O)[O][Lu]([O]C(=O)C3)[O]C(=O)C4)N(C)C(=O)[C@H](Cc2ccccc2)NC1=O [RB-0006075] (cyclo(F[NMehCys](DOTA(Lu)NH(CH2)6NHCOCH2)Y[dTrp(5-Cl)][Ala(piperidin-4-yl)]T)),1 to 3.33,
COc1ccc2[nH]cc(C[C@H]3NC(=O)[C@H](Cc4ccc(O)cc4)NC(=O)[C@H](CCSCC(=O)NCCCCCCNC(=O)CN4CCN5CCN6CCN(CC4)CC(=O)[O][Lu]([O]C(=O)C5)[O]C(=O)C6)N(C)C(=O)[C@H](Cc4ccccc4)NC(=O)[C@H]([C@@H](C)O)NC(=O)[C@H](CC4CCNCC4)NC3=O)c2c1 [RB-0006076] (cyclo(F[NMehCys](DOTA(Lu)NH(CH2)6NHCOCH2)Y[dTrp(5-OMe)][Ala(piperidin-4-yl)]T)),,FALSE
C[C@@H](O)[C@@H]1NC(=O)[C@H](CC2CCNCC2)NC(=O)[C@@H]([C@@H](C)c2c[nH]c3ccccc23)NC(=O)[C@H](Cc2ccc(O)cc2)NC(=O)[C@H](COCCNC(=O)CN2CCN3CCN4CCN(CC2)CC(=O)[O][Lu]([O]C(=O)C3)[O]C(=O)C4)N(C)C(=O)[C@H](Cc2ccccc2)NC1=O [RB-0006095] (cyclo(F[NMeS](X5)Y[dTrp(βS-Me)][Ala(piperidin-4-yl)]T)),< 1,
C[C@@H](O)[C@@H]1NC(=O)[C@H](CCC2CNC2)NC(=O)[C@@H]([C@@H](C)c2c[nH]c3ccccc23)NC(=O)[C@H](Cc2ccc(O)cc2)NC(=O)[C@H](CCCCNC(=O)CN2CCN3CCN4CCN(CC2)CC(=O)[O][Lu]([O]C(=O)C3)[O]C(=O)C4)N(C)C(=O)[C@H](Cc2ccccc2)NC1=O [RB-0006128] (cyclo(F[NMeK](DOTA(Lu))Y[dTrp(βS-Me)][X2]T)),< 1,
COc1ccc(C[C@@H]2NC(=O)[C@H](CCCCNC(=O)CN3CCN4CCN5CCN(CC3)CC(=O)[O][Lu]([O]C(=O)C4)[O]C(=O)C5)N(C)C(=O)[C@H](Cc3ccccc3)NC(=O)[C@H]([C@@H](C)O)NC(=O)[C@H](CC3CCNCC3)NC(=O)[C@@H]([C@@H](C)c3c[nH]c4ccccc34)NC2=O)cc1 [RB-0006139] (cyclo(F[NMeK](DOTA(Lu))Y(Me)[dTrp(βS-Me)][Ala(piperidin-4-yl)]T)),33.3 to 100,
C[C@@H](O)[C@@H]1NC(=O)[C@H](CC2CCNCC2)NC(=O)[C@@H]([C@@H](C)c2c[nH]c3ccccc23)NC(=O)[C@H](Cc2ccc(O)cc2)NC(=O)[C@H](CNC(=O)[C@H](CC(=O)O)NC(=O)CCCCCNC(=O)CN2CCN3CCN4CCN(CC2)CC(=O)[O][Lu]([O]C(=O)C3)[O]C(=O)C4)N(C)C(=O)[C@H](Cc2ccccc2)NC1=O [RB-0006158] (cyclo(F[NMeDap]([Asp-Ahx-DOTA(Lu)])Y[dTrp(βS-Me)][Ala(piperidin-4-yl)]T)),1 to 3.33,
C[C@@H](O)[C@@H]1NC(=O)[C@H](CC2CCNCC2)NC(=O)[C@@H]([C@@H](C)c2c[nH]c3ccccc23)NC(=O)[C@H](Cc2ccc(O)cc2)NC(=O)[C@H](CNC(=O)[C@H](CC(=O)O)NC(=O)CN2CCN3CCN4CCN(CC2)CC(=O)[O][Lu]([O]C(=O)C3)[O]C(=O)C4)N(C)C(=O)[C@H](Cc2ccccc2)NC1=O [RB-0006160] (cyclo(F[NMeDap]([Asp-DOTA(Lu)])Y[dTrp(βS-Me)][Ala(piperidin-4-yl)]T)),10 to 33.3,
C[C@@H](O)[C@@H]1NC(=O)[C@H](CC2CCNCC2)NC(=O)[C@@H]([C@@H](C)c2c[nH]c3ccccc23)NC(=O)[C@H](Cc2ccc(O)cc2)NC(=O)[C@H](CCCCNC(=O)CN2CCN3CCN4CCN(CC2)CC(=O)[O][Lu]([O]C(=O)C3)[O]C(=O)C4)N(C)C(=O)[C@H](CC2CCCCC2)NC1=O [RB-0006162] (cyclo([Cha][NMeK](DOTA(Lu))Y[dTrp(βS-Me)][Ala(piperidin-4-yl)]T)),1 to 3.33,
C[C@@H](O)[C@@H]1NC(=O)[C@H](CC2CCNCC2)NC(=O)[C@@H]([C@@H](C)c2c[nH]c3ccccc23)NC(=O)[C@H](Cc2ccc(O)cc2)NC(=O)[C@H](CCCCNC(=O)CN2CCN3CCN4CCN(CC2)CC(=O)[O][Lu]([O]C(=O)C3)[O]C(=O)C4)N(C)C(=O)[C@H](CO)NC1=O [RB-0006166] (cyclo([NMeK](DOTA(Lu))Y[dTrp(βS-Me)][Ala(piperidin-4-yl)]TS)),33.3 to 100,
C[C@@H](O)[C@@H]1NC(=O)[C@H](CC2CCNCC2)NC(=O)[C@@H]([C@@H](C)c2c[nH]c3ccccc23)NC(=O)[C@H](Cc2ccc(O)cc2)NC(=O)[C@H](CCCCNC(=O)CN2CCN3CCN4CCN(CC2)CC(=O)[O][Lu]([O]C(=O)C3)[O]C(=O)C4)N(C)C(=O)[C@H](Cc2ccncc2)NC1=O [RB-0006170] (cyclo([4Pal][NMeK](DOTA(Lu))Y[dTrp(βS-Me)][Ala(piperidin-4-yl)]T)),3.33 to 10,
CNCCCC[C@@H]1NC(=O)[C@@H]([C@@H](C)c2c[nH]c3ccccc23)NC(=O)[C@H](Cc2ccc(O)cc2)NC(=O)[C@H](CCCCNC(=O)CN2CCN3CCN4CCN(CC2)CC(=O)[O][Lu]([O]C(=O)C3)[O]C(=O)C4)N(C)C(=O)[C@H](Cc2ccccc2)NC(=O)[C@H]([C@@H](C)O)NC1=O [RB-0006174] (cyclo(F[NMeK](DOTA(Lu))Y[dTrp(βS-Me)][Lys(Me)]T)),< 1,
C[C@@H](O)[C@@H]1NC(=O)[C@H](CC2CCNCC2)NC(=O)[C@@H](Cc2c[nH]c3cc(Cl)ccc23)NC(=O)[C@H](Cc2ccc(O)cc2)NC(=O)[C@H](CCSCC(=O)NCCCCCCNC(=O)CN2CCN3CCN4CCN(CC2)CC(=O)[O][Lu]([O]C(=O)C3)[O]C(=O)C4)N(C)C(=O)[C@H](Cc2ccccc2)NC1=O [RB-0006189] (cyclo(F[NMehCys](DOTA(Lu)NH(CH2)6NHCOCH2)Y[dTrp(6-Cl)][Ala(piperidin-4-yl)]T)),1 to 3.33,
COc1cccc(C[C@@H]2NC(=O)[C@H](CCCCNC(=O)CN3CCN4CCN5CCN(CC3)CC(=O)[O][Lu]([O]C(=O)C4)[O]C(=O)C5)N(C)C(=O)[C@H](Cc3ccccc3)NC(=O)[C@H]([C@@H](C)O)NC(=O)[C@H](CC3CCNCC3)NC(=O)[C@@H]([C@@H](C)c3c[nH]c4ccccc34)NC2=O)c1 [RB-0006209] (cyclo(F[NMeK](DOTA(Lu))[Phe(3-OMe)][dTrp(βS-Me)][Ala(piperidin-4-yl)]T)),1 to 3.33,
C[C@@H](O)[C@@H]1NC(=O)[C@H](CC2CCNCC2)NC(=O)[C@H]2Cc3c([nH]c4ccccc34)CN2C(=O)[C@H](Cc2ccc(O)cc2)NC(=O)[C@H](CCCCNC(=O)CN2CCN3CCN4CCN(CC2)CC(=O)[O][Lu]([O]C(=O)C3)[O]C(=O)C4)N(C)C(=O)[C@H](Cc2ccccc2)NC1=O [RB-0006213] (cyclo(F[NMeK](DOTA(Lu))Y[dTpi][Ala(piperidin-4-yl)]T)),33.3 to 100,

# Reference: patent publication US20250222146A1, “Radiopharmaceuticals Targeting Somatostatin Receptor 2 and Uses Thereof” (RayzeBio, Inc., priority 2023, published 2025)
